Reference: patent publication US20120214846A1, “HEXAHYDROCYCLOPENTYL[F]INDAZOLE PYRIDYL ETHANOLS AND DERIVATIVES THEREOF AS SELECTIVE GLUCOCORTICOID RECEPTOR MODULATORS” (MERCK SHARP & DOHME CORP, priority 2009, published 2012)
Converted amounts (≈) assume the structure as drawn. Read-outs that look alike come from different tables or passages of the source.

Assays:
Solubility at pH 2 = format: physicochemical
[1] = test system: female Sprague-Dawley rats, oxazolone (OX) contact dermatitis; assay: In Vivo Inflammation Assay (oxazolone contact dermatitis model); set-up: key to Inflammation Assay Glucose Effect / GL *: +: the glucose level increased compared to vehicle; −: the glucose level decreased compared to vehicle; conditions: for GL *: glucose effect; for Inflammation Assay Glucose Effect / Inflammation Assay Anti-inflammatory Effect: rat; for Inflammation Assay Glucose Effect: glucose level compared to vehicle; for Inflammation Assay Anti-inflammatory Effect: relative to control compound
Protocol: In Vivo Inflammation Assay
Intact adult (6 month old) female Sprague-Dawley rats are used in the oxazolone (OX) contactdermatitis model. Rats were sensitized on the ventral abdomen with OX on Day 0. On Days 7 and 9, a randomly-selected ear was challenged (same ear each time) with OX; the other was treated with vehicle. Daily treatment begun on Day 7 and continued for 7d with test compounds at different doses and 1.3 mpk 6-methlyprednisolone or 0.1 mpk DEX as positive controls. The thickness of both ears are measured on Days 11 and 14. Necropsy occurred on Day 14. The rat is first weighed, then anesthetized in a CO2 chamber until near death. Approximately 5 ml whole blood is obtained by cardiac puncture. The rat is then examined for certain signs of death and completeness. Tissues are dissected in a highly stylized fashion. Then the following endpoints were evaluated: a) inhibiting ear inflammation induced by oxazalone, b) raising serum insulin, c) reducing serum ACTH, d) reducing spleen weight, e) reducing skin thickness, f) reducing body weight, g) increasing expression of bone-related genes with potential relationship to negative glucocorticoid effects on bone; e) changes in molecular markers that correlate with skin inflammation, skin thinning, muscle atrophy and glucose metabolism in liver. All blood samples were collected between 1330-1530 hours, ˜4-5 hrs after the last compound treatment.
Primary data for this assay are left and right ear thickness. Inter-ear thickness difference (etd) is used for the estimating the level of inflammation and effectiveness of the compounds is determined by their ability to reduce the increase the thickness of the inflamed ear. Back of the rat skin thickness, spleen weight, serum insulin as well as the effects of gcs on the expression of molecular markers in skin inflammation, skin atrophy, muscle atrophy and glucose metabolism in liver are measured. Data are analyzed by anova plus fisher plsd post-hoc test to identify intergroup differences.

GR = target: T1, GR (Homo sapiens, UniProt P04150); assay: Trans-Activation Modulation of Glucocorticoid Receptor Assay (GRAMMER), MMTV-LUC reporter, A549 cells; format: cell-based; set-up: endogenous in cells
T1 sequence (P04150 1-777): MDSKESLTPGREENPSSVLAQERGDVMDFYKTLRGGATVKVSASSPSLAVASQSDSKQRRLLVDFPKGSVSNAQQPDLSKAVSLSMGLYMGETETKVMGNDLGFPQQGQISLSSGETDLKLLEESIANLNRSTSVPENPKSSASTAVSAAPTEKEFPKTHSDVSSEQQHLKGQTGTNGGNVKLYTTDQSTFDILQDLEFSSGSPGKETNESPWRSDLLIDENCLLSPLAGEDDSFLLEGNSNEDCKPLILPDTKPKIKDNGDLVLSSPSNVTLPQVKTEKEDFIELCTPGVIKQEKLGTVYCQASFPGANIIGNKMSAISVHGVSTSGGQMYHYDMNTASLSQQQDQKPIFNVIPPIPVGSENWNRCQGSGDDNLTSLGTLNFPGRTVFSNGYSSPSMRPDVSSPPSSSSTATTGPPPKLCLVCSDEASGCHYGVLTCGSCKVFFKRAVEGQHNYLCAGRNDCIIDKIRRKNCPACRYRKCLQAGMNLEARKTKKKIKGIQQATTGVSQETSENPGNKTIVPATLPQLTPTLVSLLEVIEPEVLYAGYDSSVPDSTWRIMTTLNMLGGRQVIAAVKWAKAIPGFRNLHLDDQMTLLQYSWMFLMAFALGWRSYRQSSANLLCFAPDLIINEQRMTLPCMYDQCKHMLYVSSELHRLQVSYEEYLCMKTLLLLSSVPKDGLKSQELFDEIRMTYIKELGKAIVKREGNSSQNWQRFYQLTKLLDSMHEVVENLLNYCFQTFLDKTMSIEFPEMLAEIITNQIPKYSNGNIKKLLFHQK
Source text: Trans-Activation Modulation of Glucocorticoid Receptor Assay
This assay assesses the ability of test compounds to control transcription from the MMTV-LUC reporter gene in lung adenocarcinoma A549 cells or HeLa cells, a human […] cell line that naturally expresses the human GR. The assay measures induction of a modified MMTV LTR/promoter linked to the LUC reporter gene.
The routine transient assay consists of plating 7,000-25,000 cells/well of a white, clear-bottom 96-well plate. Alternatively, 384-well plates can be used at a cell concentration of 10,000/well. The media that the cells are plated in is “exponential growth medium” which consists of phenol red-free RPMI1640 containing 10% FBS, 4 mM L-glutamine, 20 mM HEPES, 10 ug/mL human insulin, and 20 ug/mL gentamicin. Incubator conditions are 37° C. and 5% CO2. The transfection is done in batch mode. The cells are trypsinized and counted to the right cell number in the proper amount of fresh media. It is then gently mixed with the FuGene6/DNA mix and plated onto the 96 or 384-well plate, all the wells receive 100 uL or 40 uL, respectively, of medium+lipid/DNA complex then incubated 37° C. overnight. The transfection cocktail consists of serum-free OptiMEM, FuGene6 reagent and DNA. The manufacturer's (Roche Biochemical) protocol for cocktail setup is as follows: The lipid to DNA ratio is approximately 2.5:1 and the incubation time is 20 min at room temperature. Sixteen to 24 hours after transfection, the cells are treated with dexamethasone to a final concentration of 10 nM as well as the compound of interest, such that final DMSO (vehicle) concentration is equal to or less than 1%. Each plate also contains samples that are treated with 10 nM dexamethasone alone, which is used as the 100% activity control. The cells are exposed to the compounds for 24 hours. After 24 hours, the cells are lysed by a Promega cell culture lysis buffer for approximately 30 min and then the luciferase activity in the extracts is assayed in the 96-well format luminometer. In 384-well format, Steady-Glo (Promega) or Steady-Lite (PerkinElmer) can be used by adding an equal volume of reagent to the media present in each well. […] Antagonist activity is calculated by determining the decrease in dexamethasone-induced activity in response to compound treatment relative to samples that were treated with dexamethasone alone. […] This transactivation assay can be performed in an agonist and antagonist mode to identify these different activities.
The action of compounds is also tested in an antagonist mode (Anti-GRAMMER) in which the cells are treated with medium containing an agonist such as 10 nM DEX and the ability to agents to inhibit the activation by an agonist is measured.

[2] = A549, Table 4, literature compounds, read-out: GRAMMER EMAX
[3] = Table 4, literature compounds, read-out: GRAMMER IP
[4] = pH 2, aqueous buffer, pH 2, read-out: Solubility At pH 2
[5] = A549, A549 cells, relative to 300 nM dexamethasone, read-out: Transactivation A549 Cells GRAMMER Emax
[6] = A549 cells, inflection point, read-out: Transactivation A549 Cells GRAMMER IP

SMILES	solubility (Solubility at pH 2; Table 4, literature compounds)	GL * ([1]; Table 4, literature compounds)	Emax (GR; [2]) [%]	EC50 (GR; [3]) [nM]	AI* ([1]; Table 4, literature compounds, anti-inflammatory effect)	solubility (Solubility at pH 2; [4]) [µM]	Inflammation Assay Glucose Effect [1]	Inflammation Assay Anti-inflammatory Effect [1]	Emax (GR; [5]) [%]	EC50 (GR; [6]) [nM]
C[C@]12Cc3cnn(-c4ccc(F)cc4)c3C=C1CCC[C@@H]2[C@@H](O)c1ccccc1 [Ex. 35 WO 03/86294 A2, reference compound]	poor	−	40.2	195						
CO[C@@]1(CCc2ccccc2Cl)CCC2=Cc3c(cnn3-c3ccc(F)cc3)C[C@@]21C [Ex. 103 WO 04/075840 A2, reference compound]	poor	+	115	162	+ (the anti-inflammatory activity was equal to or greater than 40% of the effect generated by the control compound)					
COc1ccnc(C(O)C[C@]2(O)CCC3=Cc4c(cnn4-c4ccc(F)cc4)C[C@@]32C)c1 (stereo partly drawn) [Example 3, (4αS,5R)-1-(4-fluorophenyl)-5-[2-hydroxy-2-(4-methoxypyridin-2-yl)ethyl]-4α-methyl-1,4,4α,5,6,7-hexahydrocyclopenta[f]indazol-5-ol]						174 (≈ 75.8 µg/mL)	+	+ (the anti-inflammatory activity was equal to or greater than 40% of the effect generated by the control compound)	21.6	132
C[C@]12Cc3cnn(-c4ccc(F)cc4)c3C=C1CC[C@@]2(O)CC(O)c1cc(C#N)ccn1 (stereo partly drawn) [Example 9, 2-{2-[(4αS,5R)-1-(4-fluorophenyl)-5-hydroxy-4α-methyl-1,4,4α,5,6,7-hexahydrocyclopenta[f]indazol-5-yl]-1-hydroxyethyl}pyridine-4-carbonitrile]						104 (≈ 44.8 µg/mL)	+	+ (the anti-inflammatory activity was equal to or greater than 40% of the effect generated by the control compound)	27.4	160
Cc1ccnc(C(O)C[C@]2(O)CCC3=Cc4c(cnn4-c4ccc(F)cc4)C[C@@]32C)c1 (stereo partly drawn) [Example 11, (4αS,5R)-1-(4-fluorophenyl)-5-[2-hydroxy-2-(4-methylpyridin-2-yl)ethyl]-4α-methyl-1,4,4α,5,6,7-hexahydrocyclopenta[f]indazol-5-ol]						193 (≈ 81 µg/mL)	+	+ (the anti-inflammatory activity was equal to or greater than 40% of the effect generated by the control compound)	27.7	162
